{
  "source": "patent US12221446B2",
  "about": "(Merck Patent GmbH, priority 2018, dated 2025)",
  "key": {"[1]": {"description": "DVS measurements are typically performed with an SPS11-100n “Sorptions Prüfsystem” from ProUmid (formerly “Projekt Messtechnik”), August-Nagel-Str. 23, 89079 Ulm (Germany).\nDVS measurements were performed with an SPS11-100n “Sorptions Prüfsystem” from ProUmid (formerly “Projekt Messtechnik”), August-Nagel-Str. 23, 89079 Ulm (Germany)."}, "[2]": {"conditions": "25° C./60% rh; for Pyrazino-s-triazine derivative of 4α-hydroxy-5-methyl-THF (MeFox) (% w/w): major degradation product", "procedure": "Additionally the content of the pyrazino-s-triazine derivative of 4α-hydroxy-5-methyl-THF (MeFox), a major degradation product, was measured by HPLC at periodic intervals and disclosed as absolute values (% w/w)."}, "[3]": {"conditions": "for Pyrazino-s-triazine derivative of 4α-hydroxy-5-methyl-THF (MeFox) (% abs.): 40° C./75% rh, major degradation product", "procedure": "The content of 5-methyl-(6S)-tetrahydrofolic acid remaining in the sample was measured by HPLC at periodic intervals. The content of 5-methyl-(6S)-tetrahydrofolic acid remaining was also compared to the initial value at the time of preparation (% rel.). Additionally the content of the pyrazino-s-triazine derivative of 4α-hydroxy-5-methyl-THF (MeFox), a major degradation product, was measured by HPLC at periodic intervals and disclosed as absolute values (% w/w)."}, "[4]": {"test": "Water content / TG-FTIR analysis", "procedure": "Thermogravimetric measurements were carried out with a Netzsch Thermo-Microbalance TG 209 coupled to a Bruker FTIR Spectrometer Vector 22 (sample pans with a pinhole, N2 atmosphere, heating rate 10 K/min)."}},
  "note": "Read-outs that look alike come from different tables or passages of the source.",
  "data": [
    {"smiles": "CN1c2c([nH]c(N)nc2=O)NC[C@@H]1CNc1ccc(C(=O)N[C@@H](CCC(=O)[O-])C(=O)[O-])cc1.[Ca+2]", "values": [
      {"measurement": "change of water content", "setting": "[1]; relative humidity from 20 to 75% r.h.", "result": "more than 6%"},
      {"measurement": "change of water content (DVS)", "setting": "[1]; within the tested range, 0 to 75% r.h.", "result": "more than 6%"},
      {"measurement": "Pyrazino-s-triazine derivative of 4α-hydroxy-5-methyl-THF (MeFox) (% w/w)", "setting": "[2]; 0 months", "result": 0.20, "unit": "% w/w"},
      {"measurement": "Pyrazino-s-triazine derivative of 4α-hydroxy-5-methyl-THF (MeFox) (% w/w)", "setting": "[2]; 3 months", "result": 0.59, "unit": "% w/w"},
      {"measurement": "Pyrazino-s-triazine derivative of 4α-hydroxy-5-methyl-THF (MeFox) (% w/w)", "setting": "[2]; 6 months", "result": 0.71, "unit": "% w/w"},
      {"measurement": "Pyrazino-s-triazine derivative of 4α-hydroxy-5-methyl-THF (MeFox) (% w/w)", "setting": "[2]; 9 months", "result": 0.68, "unit": "% w/w"},
      {"measurement": "content of MeFox", "setting": "[2]; already before reaching 9 months", "result": "over 0.6%"},
      {"measurement": "Pyrazino-s-triazine derivative of 4α-hydroxy-5-methyl-THF (MeFox) (% abs.)", "setting": "[3]; 0 months", "result": 0.20, "unit": "% abs."},
      {"measurement": "Pyrazino-s-triazine derivative of 4α-hydroxy-5-methyl-THF (MeFox) (% abs.)", "setting": "[3]; 3 months", "result": 0.72, "unit": "% abs."},
      {"measurement": "Pyrazino-s-triazine derivative of 4α-hydroxy-5-methyl-THF (MeFox) (% abs.)", "setting": "[3]; 6 months", "result": 0.80, "unit": "% abs."},
      {"measurement": "Pyrazino-s-triazine derivative of 4α-hydroxy-5-methyl-THF (MeFox) (% abs.)", "setting": "[3]; 9 months", "result": 0.68, "unit": "% abs."},
      {"measurement": "content of MeFox", "setting": "[3]; already before reaching 9 months (Table 7)", "result": "over 0.6%"},
      {"measurement": "water content (generally)", "setting": "[4]; general statement", "result": "more than 10%"},
      {"measurement": "water content", "setting": "[4]; measured on a sample", "result": 12.4, "unit": "%"}
    ]}
  ]
}
